Assay results: US20260374766A1, “METHODS FOR TREATING CANCER” (Antares Therapeutics, Inc., priority 2022, published 2026)

What was measured:
NUGC3 p53 Y220C = assay: Cell Proliferation Assay (CellTiter-Glo, CTG), NUGC3 p53 Y220C; type: cell-based; details: Homo sapiens, NUGC-3, 120 h, NUGC3 cells; 5 days
Outline: (§1)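 NClH1299 lines stably transduced with Tet-inducible p53 Y220C or R273H, plus NUGC3, were treated with compound for 5 days at 250-500 cells/well. IC50 derived from CellTiter-Glo luminescent signal after 10 min room-temperature incubation.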

p53 Y220C = p53 Y220C (Homo sapiens, UniProt P04637, Y220C); assay: Luciferase Reporter Assay (Luc), p53 response element, NClH1299 cells with inducible p53 Y220C; type: cell-based; details: NClH1299 cells with inducible p53 Y220C, 6 hour; for AC50: read-out: Luc P53 Y220C AC50; for Emax: 10 uM tool compound as positive control
Outline: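 Doxycycline (0.5 ug/mL, 24 h) induces the mutant before a 6-hour compound treatment. Reporter activity is then quantified by One-Glo luminescence.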

[1] = molecular target: T1, p53 Y220C mutant protein (amino acid residues 94-293) (Homo sapiens, UniProt P04637, Y220C); assay: Surface Plasmon Resonance (SPR) assay, Kd_kinetic; type: binding; details: SPR; p53 Y220C; read-out: SPR P53 Y220C KD kinetic
T1 construct: p53 Y220C mutant protein (amino acid residues 94-293)
Outline: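 Temperature held at 16 or 20 °C during Biacore 8K runs. Buffer: 50 mM Tris, pH 7.5, 100 mM NaCl, 1 mM DTT, 0.01% Brij35, 0.05% Tween-20, 1% DMSO.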

H1299 p53 R273H = assay: Cell Proliferation Assay (CellTiter-Glo, CTG), H1299 p53 R273H (NClH1299-inducible p53 R273H); type: cell-based; details: Homo sapiens, NCI-H1299, 120 h, NClH1299-inducible p53 R273H cells; 5 days
Outline: as §1

H1299 p53 Y220C = assay: Cell Proliferation Assay (CellTiter-Glo, CTG), H1299 p53 Y220C (NClH1299-inducible p53 Y220C); type: cell-based; details: Homo sapiens, NCI-H1299, 120 h, NClH1299-inducible p53 Y220C cells; 5 days
Outline: as §1

T1 sequence (P04637 94-293, stated change not applied): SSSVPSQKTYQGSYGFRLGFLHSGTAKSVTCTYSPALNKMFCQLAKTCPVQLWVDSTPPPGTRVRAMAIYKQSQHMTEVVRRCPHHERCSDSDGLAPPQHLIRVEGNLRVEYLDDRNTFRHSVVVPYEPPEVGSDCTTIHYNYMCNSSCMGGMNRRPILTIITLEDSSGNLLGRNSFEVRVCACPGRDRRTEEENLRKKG

AC50 (p53 Y220C) [nM]	Emax (p53 Y220C) [%]	Kd [1] [nM]	IC50 (H1299 p53 R273H) [nM]	IC50 (H1299 p53 Y220C) [nM]	Compound	IC50 (NUGC3 p53 Y220C) [nM]
< 750	> 90	< 10	≥ 10000	< 750	CNC(=O)c1ccc(OC)c(NCC#Cc2cc3c(N[C@@H]4CNC[C@@H]4F)cccn3c2SC(F)(F)F)c1 [Example 478]	< 750
< 750	> 90	< 10	≥ 10000	< 750	CNC(=O)c1cc(NCC#Cc2cc3c(N[C@@H]4CCN(C)C[C@@H]4F)cccn3c2SC(F)(F)F)c2cncn2c1 [Example 479]	< 750
< 750	> 90	< 10	≥ 10000	< 750	COc1ccc(C(=O)N[C@H]2C[C@H](O)C2)cc1NCC#Cc1cc2c(N[C@@H]3CCN(C)C[C@@H]3F)cccn2c1SC(F)(F)F [Example 482]	< 750
< 750	> 90	< 10	≥ 10000	< 750	CNC(=O)c1cc(NCC#Cc2cc3c(N[C@@H]4CCN(C)C[C@@H]4F)cccn3c2SC(F)(F)F)c2nncn2c1 [Example 483, 8-{[3-(8-{[(3S,4R)-3-fluoro-1-methylpiperidin-4-yl]amino}-3-[(trifluoromethyl)sulfanyl]indolizin-2-yl)prop-2-yn-1-yl]amino}-N-methyl-[1,2,4]triazolo[4,3-a]pyridine-6-carboxamide]	< 750
< 750	> 90	< 10	≥ 10000	< 750	C[C@@H](O)CNC(=O)c1ccc(OC2COC2)c(NCC#Cc2cc3c(N[C@@H]4CCN(C)C[C@@H]4F)cccn3c2SC(F)(F)F)c1 [Example 486]	< 750
< 750	> 90	< 10	≥ 10000	< 750	CNC(=O)c1ccc(NCC#Cc2cc3c(N[C@@H]4CCN(C)C[C@@H]4F)cccn3c2SC(F)(F)F)c(C(=O)NC)c1 [Example 493, 4-{[3-(8-{[(3S,4R)-3-fluoro-1-methylpiperidin-4-yl]amino}-3-[(trifluoromethyl)sulfanyl]indolizin-2-yl)prop-2-yn-1-yl]amino}-N1,N3-dimethylbenzene-1,3-dicarboxamide]	< 750
< 750	> 90	< 10	5000 to 8000	< 750	CNC(=O)c1ccc(OC2COC2)c(NCC#Cc2cc3c(N[C@@H]4CCN(C)C[C@@H]4F)cccn3c2SC(F)(F)F)c1 [Example 499]	< 750

Continued, compound first:

Compound	AC50 (p53 Y220C) [nM]	Emax (p53 Y220C) [%]	Kd [1] [nM]	IC50 (H1299 p53 R273H) [nM]	IC50 (H1299 p53 Y220C) [nM]	IC50 (NUGC3 p53 Y220C) [nM]
COc1ccc(C(=O)N[C@H](C)[C@@H](C)O)cc1NCC#Cc1cc2c(N[C@@H]3CCN(C)C[C@@H]3F)cccn2c1SC(F)(F)F [Example 473]	< 750	> 90	< 10	≥ 10000	< 750	< 750
COc1cc(C(=O)NC[C@H](C)O)ccc1NCC#Cc1cc2c(N[C@@H]3CCN(C)C[C@@H]3F)cccn2c1SC(F)(F)F [Example 475, 4-{[3-(8-{[(3S,4R)-3-fluoro-1-methylpiperidin-4-yl]amino}-3-[(trifluoromethyl)sulfanyl]indolizin-2-yl)prop-2-yn-1-yl]amino}-N-[(2S)-2-hydroxypropyl]-3-methoxybenzamide]	< 750	> 90	< 10	8000 to 10000	< 750	< 750
CNC(=O)c1ccc(O)c(NCC#Cc2cc3c(N[C@@H]4CCNC[C@@H]4F)cccn3c2SC(F)(F)F)c1 [Example 477, 3-{[3-(8-{[(3S,4R)-3-fluoropiperidin-4-yl]amino}-3-[(trifluoromethyl)sulfanyl]indolizin-2-yl)prop-2-yn-1-yl]amino}-4-hydroxy-N-methylbenzamide]	< 750	80 to 90	< 10	≥ 10000	< 750	< 750
CNC(=O)c1ccc(OC)c(NCC#Cc2cc3c(N[C@@H]4CCN(C5COC5)C[C@@H]4F)cccn3c2SC(F)(F)F)c1 [Example 481, 3-{[3-(8-{[(3S,4R)-3-fluoro-1-(oxetan-3-yl)piperidin-4-yl]amino}-3-[(trifluoromethyl)sulfanyl]indolizin-2-yl)prop-2-yn-1-yl]amino}-4-methoxy-N-methylbenzamide]	< 750	> 90	< 10	5000 to 8000	< 750	< 750
O=C(NC[C@@H]1COCCO1)c1ccc(NCC#Cc2cc3c(N[C@@H]4CCNC[C@@H]4F)cccn3c2SC(F)(F)F)cc1 [Example 484]	< 750	> 90	< 10	8000 to 10000	< 750	< 750
CNC(=O)c1ccc(NCC#Cc2cc3c(N[C@@H]4CCNC[C@@H]4F)cccn3c2SC(F)(F)F)c(OC)n1 [Example 488]	< 750	> 90	< 10	5000 to 8000	< 750	< 750
CNC(=O)c1ccc(NCC#Cc2cc3c(N[C@@H]4CCNC[C@@H]4F)cccn3c2SC(F)(F)F)cc1 [Example 492, 4-{[3-(8-{[(3S,4R)-3-fluoropiperidin-4-yl]amino}-3-[(trifluoromethyl)sulfanyl]indolizin-2-yl)prop-2-yn-1-yl]amino}-N-methylbenzamide]	< 750	> 90	< 10	5000 to 8000	< 750	< 750
CNC(=O)c1ccc(NCC#Cc2cc3c(N[C@@H]4CCN(C)C[C@@H]4F)cccn3c2SC(F)(F)F)c(C(=O)NC)n1 [Example 495, 3-{[3-(8-{[(3S,4R)-3-fluoro-1-methylpiperidin-4-yl]amino}-3-[(trifluoromethyl)sulfanyl]indolizin-2-yl)prop-2-yn-1-yl]amino}-N2,N6-dimethylpyridine-2,6-dicarboxamide]	< 750	> 90	< 10	5000 to 8000	< 750	< 750
CNC(=O)c1cnc(C(=O)NC)c(NCC#Cc2cc3c(N[C@@H]4CCN(C)C[C@@H]4F)cccn3c2SC(F)(F)F)c1 [Example 496]	< 750	> 90	< 10	5000 to 8000	< 750	< 750
CNC(=O)c1ccc(O[C@H]2C[C@H](O)C2)c(NCC#Cc2cc3c(N[C@@H]4CCN(C)C[C@@H]4F)cccn3c2SC(F)(F)F)c1 [Example 497, 3-{[3-(8-{[(3S,4R)-3-fluoro-1-methylpiperidin-4-yl]amino}-3-[(trifluoromethyl)sulfanyl]indolizin-2-yl)prop-2-yn-1-yl]amino}-N-methyl-4-[(1r,3r)-3-hydroxycyclobutoxy]benzamide]	< 750	> 90	< 10	≥ 10000	< 750	< 750
CNC(=O)c1cnc(OC)c(NCC#Cc2cc3c(N[C@@H]4CCNC[C@@H]4F)cccn3c2SC(F)(F)F)c1 [Example 498]	< 750	> 90	< 10	≥ 10000	< 750	< 750
